PubChem BioAssay (NCI)
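1) Cells in 96-well plates. 2) Compound, 48 h, 5 concentrations. 3) Linear interpolation between surrounding doses. 4) Unreached endpoint = highest concentration. GI50 is the concentration that inhibits growth by half. TGI denotes the concentration required for complete inhibition of growth.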

Key:
Test in all cases: NCI anticancer screen, dose series, 48 h
[1] = test system: 786-0 renal
[2] = test system: A498 renal
[3] = test system: A549 NSCLC
[4] = test system: ACHN renal
[5] = test system: BT-549 breast
[6] = test system: CAKI-1 renal
[7] = test system: CCRF-CEM leukemia
[8] = test system: COLO 205 colon
[9] = test system: DU-145 prostate
[10] = test system: EKVX NSCLC
[11] = test system: HCC-2998 colon
[12] = test system: HCT-116 colon
[13] = test system: HCT-15 colon
[14] = test system: HL-60(TB) leukemia
[15] = test system: HOP-62 NSCLC
[16] = test system: HOP-92 NSCLC
[17] = test system: HS 578T breast
[18] = test system: HT29 colon
[19] = test system: IGROV1 ovarian
[20] = test system: K-562 leukemia
[21] = test system: KM12 colon
[22] = test system: LOX IMVI melanoma
[23] = test system: M14 melanoma
[24] = test system: MALME-3M melanoma
[25] = test system: MCF7 breast
[26] = test system: MDA-MB-231 breast
[27] = test system: MDA-MB-435
[28] = test system: MOLT-4 leukemia
[29] = test system: NCI-H226 lung
[30] = test system: NCI-H23 lung
[31] = test system: NCI-H460 lung
[32] = test system: NCI-H522 lung
[33] = test system: NCI/ADR-RES ovarian
[34] = test system: OVCAR-3 ovarian
[35] = test system: OVCAR-4 ovarian
[36] = test system: OVCAR-5 ovarian
[37] = test system: OVCAR-8 ovarian
[38] = test system: PC-3 prostate
[39] = test system: RPMI-8226 leukemia
[40] = test system: RXF 393 renal
[41] = test system: SF-268 CNS
[42] = test system: SF-295 CNS
[43] = test system: SF-539 CNS
[44] = test system: SK-MEL-2 melanoma
[45] = test system: SK-MEL-28 melanoma
[46] = test system: SK-MEL-5 melanoma
[47] = test system: SK-OV-3 ovarian
[48] = test system: SNB-19 CNS
[49] = test system: SNB-75 CNS
[50] = test system: SR leukemia
[51] = test system: SW-620 colon
[52] = test system: T-47D breast
[53] = test system: TK-10 renal
[54] = test system: U251 CNS
[55] = test system: UACC-257 melanoma
[56] = test system: UACC-62 melanoma
[57] = test system: UO-31 renal

`CCN(CC)c1ccc(NC(C(=O)c2ccccc2)c2ccccc2)cc1` (centres undefined) showed a GI50 [1] of 1.83 µM, a TGI [1] of 3.59 µM and a GI50 [2] of 2.71 µM. For the same molecule, the TGI [2] was 10.1 µM, the GI50 [3] was 10.5 µM and the TGI [3] was 54 µM. For the same molecule, the GI50 [4] was 1.9 µM, the TGI [4] was 3.82 µM and the GI50 [5] was 2.85 µM. It also gave a TGI [5] of 9.59 µM, a GI50 [6] of 3.36 µM and a TGI [6] of 11.6 µM. It also gave a GI50 [7] of 2.29 µM, a TGI [7] of 13.5 µM and a GI50 [8] of 3.41 µM. For the same molecule, the TGI [8] was 11.9 µM, the GI50 [9] was 2.24 µM and the TGI [9] was 5.08 µM. For the same molecule, the GI50 [10] was 3.59 µM, the TGI [10] was 14.4 µM and the GI50 [11] was 2.81 µM. The TGI [11] was 8.62 µM, the GI50 [12] was 2.58 µM and the TGI [12] was 6.6 µM. The GI50 [13] was 1.96 µM, the TGI [13] was 5.31 µM and the GI50 [14] was 3.24 µM. The TGI [14] was 20.9 µM, the GI50 [15] was 4.31 µM and the TGI [15] was 16.5 µM. It also gave a GI50 [16] of 2.22 µM, a TGI [16] of 8.21 µM and a GI50 [17] of 3.41 µM. For the same molecule, the TGI [17] was 47.1 µM, the GI50 [18] was 3.19 µM and the TGI [18] was over 100 µM. For the same molecule, the GI50 [19] was 4.31 µM, the TGI [19] was 18.1 µM and the GI50 [20] was 3.27 µM. For the same molecule, the TGI [20] was 55.1 µM, the GI50 [21] was 4.03 µM and the TGI [21] was 15.7 µM. It also gave a GI50 [22] of 1.57 µM, a TGI [22] of 3 µM and a GI50 [23] of 2.16 µM. The TGI [23] was 5.91 µM, the GI50 [24] was 2.76 µM and the TGI [24] was 7.44 µM. The GI50 [25] was 2.23 µM, the TGI [25] was 16.6 µM and the GI50 [26] was 2.85 µM. The TGI [26] was 10.3 µM, the GI50 [27] was 2.25 µM and the TGI [27] was 6.05 µM. For the same molecule, the GI50 [28] was 0.696 µM, the TGI [28] was 24.4 µM and the GI50 [29] was 1.76 µM. It also gave a TGI [29] of 3.53 µM, a GI50 [30] of 2.15 µM and a TGI [30] of 4.67 µM. It also gave a GI50 [31] of 3.08 µM, a TGI [31] of 11.4 µM and a GI50 [32] of 2.3 µM. For the same molecule, the TGI [32] was 7.05 µM, the GI50 [33] was 2.54 µM and the TGI [33] was 6.21 µM. The GI50 [34] was 3.05 µM, the TGI [34] was 8.15 µM and the GI50 [35] was 4.78 µM. It also gave a TGI [35] of 46.2 µM, a GI50 [36] of 2.24 µM and a TGI [36] of 5.26 µM. It also gave a GI50 [37] of 3.28 µM, a TGI [37] of over 100 µM and a GI50 [38] of 3.62 µM. For the same molecule, the TGI [38] was 16.8 µM, the GI50 [39] was 2.61 µM and the TGI [39] was 12.3 µM. For the same molecule, the GI50 [40] was 1.7 µM, the TGI [40] was 3.47 µM and the GI50 [41] was 4.23 µM. For the same molecule, the TGI [41] was 17.4 µM, the GI50 [42] was 3.34 µM and the TGI [42] was 12.6 µM. For the same molecule, the GI50 [43] was 2.11 µM, the TGI [43] was 4.98 µM and the GI50 [44] was 3.44 µM. For the same molecule, the TGI [44] was 16.8 µM, the GI50 [45] was 1.81 µM and the TGI [45] was 3.6 µM. It also gave a GI50 [46] of 2 µM, a TGI [46] of 4.66 µM and a GI50 [47] of 18.6 µM. For the same molecule, the TGI [47] was 78.3 µM, the GI50 [48] was 3.45 µM and the TGI [48] was 19.1 µM. It also gave a GI50 [49] of 2.24 µM, a TGI [49] of 10.7 µM and a GI50 [50] of 0.594 µM. The TGI [50] was over 100 µM, the GI50 [51] was 2.25 µM and the TGI [51] was 5.93 µM. The GI50 [52] was 3.35 µM, the TGI [52] was 29 µM and the GI50 [53] was 2.49 µM. For the same molecule, the TGI [53] was 7.53 µM, the GI50 [54] was 2.72 µM and the TGI [54] was 10 µM. The GI50 [55] was 4.86 µM, the TGI [55] was 22.1 µM and the GI50 [56] was 1.92 µM. It also gave a TGI [56] of 4.09 µM, a GI50 [57] of 1.9 µM and a TGI [57] of 4.18 µM.
